What was measured:
[1] = Pharmacokinetics in male CD-1 mice dosed p.o.; assay type: in vivo; conditions: p.o. 10 mg/kg, compared to reference compound 73
Kgp = Kgp (Porphyromonas gingivalis (Bacteroides gingivalis), UniProt Q51817); assay: Cy5 activity-based probe detection of Kgp in P. gingivalis lysate; assay type: binding; conditions: 100 nM, FIG. 9C
Description: It has a warhead that binds to the Kgp active site, a peptide-based core, and a Cy5 fluorophore for detection. Labeled target proteins can be visualized by biochemical separation of a sample with fractionation by 2-D gel electrophoresis and detection of fluorescent signals from Cy5 at the appropriate excitation and emission wavelength. Incubation of a fixed concentration of the probe following binding of Kgp to a test compound (e.g., a candidate Kgp inhibitor) results in binding of the activity probe to Kgp active sites not already bound by the test compound.
10^8 bacteria were collected and centrifuged at 5000 g for 10 min at 4° C., and the supernatant was discarded. The bacterial cell pellet was lysed with 1 mL of B-Per lysis buffer (Thermo Fischer) on ice for 10 min, then centrifuged for 10 min at 14000 g, 4° C. Supernatant-containing protein lysate was collected. Biological samples were lysed with B-Per lysis buffer for 10 min at 4° C.
Biological samples, P. gingivalis lysate or purified Kgp were incubated with quenchable Cy5 probe compound 71 (1 μM) for 1 h at 37° C. with shaking. Then, samples were denatured with NUPAGE LDS sample buffer (Thermo Fisher) containing 50 mM DTT at 95° C. for 10 min and subjected to SDS-PAGE electrophoresis using a Criterion 4-15% precast gel (Bio-Rad) and Tris/Glycine/SDS running buffer (Bio-Rad). The gel was run at 75V for 10 min and then 125V for 1.5 h. The gel was then removed from the plastic cassette and subjected to Cy5 visualization with a ChemiDoc imaging system (Bio-Rad).
Samples were labeled with quenchable Cy5 probe compound 71 (1 μM) for 1 h at 37° C. with shaking. For immunoprecipitation of Cy5 labeled Kgp, the samples were then incubated with 10 μg of rabbit polyclonal CAB102 antibody with rotation overnight at 4° C. Then, samples were incubated with prewashed Dynabead Protein G beads with rotation for 20 min at room temperature. The samples were washed 4 times with 200 μL of washing buffer, using a magnetic rack. […]

Kgp, sequence (Q51817 229-737 limits assumed): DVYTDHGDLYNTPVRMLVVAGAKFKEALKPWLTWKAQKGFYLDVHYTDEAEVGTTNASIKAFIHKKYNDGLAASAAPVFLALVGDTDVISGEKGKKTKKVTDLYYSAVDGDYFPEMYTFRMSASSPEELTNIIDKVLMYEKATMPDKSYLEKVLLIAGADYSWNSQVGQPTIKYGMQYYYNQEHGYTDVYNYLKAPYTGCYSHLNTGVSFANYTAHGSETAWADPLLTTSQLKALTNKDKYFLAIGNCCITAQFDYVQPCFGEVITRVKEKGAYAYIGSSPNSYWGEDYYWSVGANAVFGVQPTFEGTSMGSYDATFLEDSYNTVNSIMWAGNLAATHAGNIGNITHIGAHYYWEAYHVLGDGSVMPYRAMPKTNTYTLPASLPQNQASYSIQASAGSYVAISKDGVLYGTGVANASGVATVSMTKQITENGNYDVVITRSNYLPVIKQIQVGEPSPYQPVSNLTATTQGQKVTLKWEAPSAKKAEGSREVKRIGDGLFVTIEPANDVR

With NCCCC[C@H](NC(=O)C1CCCC1)C(=O)COc1c(F)ccc(F)c1F [Compound 1, (S)—N-(7-amino-2-oxo-1-(2,3,6-trifluorophenoxy)heptan-3-yl)cyclopentanecarboxamide] the oral availability [1] was “improved oral availability”, the plasma concentrations [1] was “increased plasma concentrations” and the “competition with probe compound 71 for Kgp active site” value (Kgp) was “competes for active site binding”.

Source: patent US10730826B2, “Ketone inhibitors of lysine gingipain” (CORTEXYME, INC., priority 2016, dated 2020)
